Laboratory results as given in patent US10035800B2 (AbbVie Inc., priority 2013, dated 2018).
Where two headings read alike, the source gives them in different places.

Experiments:
BRD4 (BDI_K57-E168) = target: T1, BRD4 (BDI_K57-E168) (Homo sapiens, UniProt O60885); test: TR-FRET bromodomain binding assay, first bromodomain of BRD4; settings: 100 nM probe
T1 construct: BD1: amino acids K57-E168; made in house
How it was run: (§1)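 Probe displacement by TR-FRET: 8 nM His-BRD4 bromodomain, 1 nM Eu-anti-His, Alexa647 BET-inhibitor probe at 100 nM (BDI) or 30 nM (BDII); 20 mM Na phosphate pH 6.0, 2% DMSO; 1 h RT. Ex 340, Em 495/520. IC50 from 4PL fit; Ki from IC50, probe Kd and probe concentration.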

BRD4 (BDII_E352-M457) = target: T2, BRD4 (BDII_E352-M457) (Homo sapiens, UniProt O60885); test: TR-FRET bromodomain binding assay, second bromodomain of BRD4; settings: 30 nM probe
T2 construct: protocol; made in house
How it was run: as §1

[1] = test system: breast cancer cell line MX-1; test: MX-1 cell line proliferation assay; assay type: cell-based; settings: MX-1 cells, 3-day proliferation assay, Cell Titer Glo, read-out: Cellular proliferation: EC50
How it was run: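 MX-1 cells at 5000/well, in RPMI 1640 with 10% FBS, were exposed to compounds for 3 days. Final concentrations ranged 3 μM–0.1 nM or 1 μM–0.03 nM, in 3-fold steps. Cell Titer Glo luminescence was normalized to DMSO and fitted sigmoidally for EC50; overall MSR 2.1.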

[2] = test system: IL-6 (Interleukin-6) production; test: LPS (lipopolysaccharide) induced IL-6 production mouse assay; assay type: in vivo, mice; settings: oral administration 1 h before LPS 2.5 mg/kg ip, serum 2 h after LPS, p < 0.05 vs vehicle
Experimental: LPS (Lipopolysaccharide) Induced IL-6 Production Mouse Assay
Compounds of the Examples listed in Table 2 were assayed for their ability to inhibit LPS (lipopolysaccharide) induced IL-6 (Interleukin-6) production in mice. Fox Chase SCID® female mice (Charles Rivers Labs, 5 per group) or CD1 female mice (5 per group) received an intraperitoneal challenge of lipopolysaccharide (2.5 mg/kg, L2630 E. coli 0111:B4) one hour after oral administration of compounds. Mice were euthanized 2 hours after lipopolysaccharide injection, blood was removed by cardiac puncture, and then the serum harvested from the blood samples was frozen at −80° C. On the day of the assay the serum samples were brought to room temperature and then diluted 1:20 in phosphate-buffered saline containing 2% bovine serum albumin. Interleukin-6 measurements were performed using a cytokine assay from Meso Scale Discovery (Gaithersburg, Md.) for mouse serum analysis according to the manufacturer's protocol and read on a SECTOR Imager 6000 (Meso Scale Discovery, Gaithersburg, Md.) instrument. Statistical analysis was performed using Prism software (version 5.0) incorporating Dunnett's one way ANOVA. The IL-6 mean and standard deviation of the group of vehicle treated animals were compared with the IL-6 mean and standard deviation of the group treated with drug. A p value <0.05 means that there is less than a 5% probability that the mean values in the two groups are equal.

[3] = TR-FRET assay protocol G (compound 0.92 μM-15 pM)
[4] = TR-FRET assay protocol E (compound 9.19 μM-150 pM)

Row | Ki (BRD4 (BDI_K57-E168); [3]) [nM] | Ki (BRD4 (BDII_E352-M457); [3]) [nM] | EC50 ([1]; Homo sapiens, MX1, 72 h) [nM] | Ki (BRD4 (BDI_K57-E168); [4]) [nM] | Ki (BRD4 (BDII_E352-M457); [4]) [nM] | EC50 [1] [nM] | Compound | % inhibition of LPS induced IL-6 production ([2]; mouse strain SCID) [%] | % inhibition of LPS induced IL-6 production ([2]; mouse strain CD1) [%]
1 | 1.67 | 1.18 | 0.752 | – | – | – | [2H]C1([2H])c2c[nH]c3c(=O)n(C)cc(c23)-c2cc(CS(C)(=O)=O)ccc2N1c1ccc(F)cc1 [Example 31, 4-(4-fluorophenyl)-(3,3-^2H2)-10-methyl-7-((methylsulfonyl)methyl)-3,4-dihydro-1H-1,4,10-triazadibenzo[cd,f]azulen-11(10H)-one] | 83 | –
2 | – | – | – | 0.646 | 3.77 | 5.68 | Cn1cc2c3c(c[nH]c3c1=O)CN(c1ccc(F)cc1)c1ccc(S(C)(=O)=O)cc1-2 [Example 8, 4-(4-fluorophenyl)-10-methyl-7-(methylsulfonyl)-3,4-dihydro-1H-1,4,10-triazadibenzo[cd,f]azulen-11(10H)-one] | 53 | –
3 | – | – | – | 0.963 | 0.801 | 1.07 | CCCCN1Cc2c[nH]c3c(=O)n(C)cc(c23)-c2cc(CS(C)(=O)=O)ccc21 [Example 24, 4-butyl-10-methyl-7-((methylsulfonyl)methyl)-3,4-dihydro-1H-1,4,10-triazadibenzo[cd,f]azulen-11(10H)-one] | 78 | –
4 | – | – | – | 6.95 | 2.74 | 1.03 | 10-methyl-7-((methylsulfonyl)methyl)-4-((tetrahydro-2H-pyran-3-yl)methyl)-3,4-dihydro-1H-1,4,10-triazadibenzo[cd,f]azulen-11(10H)-one [Example 29] | 76 | –
5 | – | – | – | 1.7 | 0.783 | 7 | CCS(=O)(=O)Nc1cnc2c(c1)-c1cn(C)c(=O)c3[nH]cc(c13)CN2c1ccc(F)cc1F [Example 23, N-(4-(2,4-difluorophenyl)-10-methyl-11-oxo-3,4,10,11-tetrahydro-1H-1,4,5,10-tetraazadibenzo[cd,f]azulen-7-yl)ethanesulfonamide] | 54 | –
6 | 1.33 | 0.38 | – | – | – | 1.47 | N-ethyl-4-(4-fluorophenyl)-10-methyl-7-((methylsulfonyl)methyl)-11-oxo-3,4,10,11-tetrahydro-1H-1,4,10-triazadibenzo[cd,f]azulene-2-carboxamide [Example 194] | – | 53
7 | 1.31 | 2 | – | – | – | 1.08 | Cn1cc2c3c(c[nH]c3c1=O)CN(C1CCCOC1)c1ccc(CS(C)(=O)=O)cc1-2 (racemic) [Example 182, 10-methyl-7-((methylsulfonyl)methyl)-4-(tetrahydro-2H-pyran-3-yl)-3,4-dihydro-1H-1,4,10-triazadibenzo[cd,f]azulen-11(10H)-one] | – | 77
8 | – | – | – | 4.98 | 1.36 | 1.39 | Cn1cc2c3c(c[nH]c3c1=O)CN(C1CCC(F)(F)CC1)c1ccc(CS(C)(=O)=O)cc1-2 [Example 30, 4-(4,4-difluorocyclohexyl)-10-methyl-7-((methylsulfonyl)methyl)-3,4-dihydro-1H-1,4,10-triazadibenzo[cd,f]azulen-11(10H)-one] | 81 | –
9 | 1.59 | 0.63 | – | – | – | 0.69 | Cn1cc2c3c(c[nH]c3c1=O)CN(c1ccc(Cl)cc1)c1ccc(CS(C)(=O)=O)cc1-2 [Example 198, 4-(4-chlorophenyl)-10-methyl-7-((methylsulfonyl)methyl)-3,4-dihydro-1H-1,4,10-triazadibenzo[cd,f]azulen-11(10H)-one] | – | 86
10 | 0.79 | 0.35 | – | – | – | 4.3 | CCNC(=O)c1[nH]c2c(=O)n(C)cc3c2c1CN(c1ccc(F)cc1F)c1ccc(CS(C)(=O)=O)cc1-3 [Example 202, 4-(2,4-difluorophenyl)-N-ethyl-10-methyl-7-((methylsulfonyl)methyl)-11-oxo-3,4,10,11-tetrahydro-1H-1,4,10-triazadibenzo[cd,f]azulene-2-carboxamide] | – | 47
11 | 2.55 | 33.1 | – | – | – | 115 | CN1CCN(C(=O)c2[nH]c3c(=O)n(C)cc4c3c2CN(c2ccc(Cl)cc2)c2ccc(CS(C)(=O)=O)cc2-4)CC1 [Example 60, 4-(4-chlorophenyl)-10-methyl-2-(4-methylpiperazine-1-carbonyl)-7-((methylsulfonyl)methyl)-3,4-dihydro-1H-1,4,10-triazadibenzo[cd,f]azulen-11(10H)-one] | – | 44
12 | – | – | – | 5.22 | 0.631 | 8.75 | COCCC1c2c[nH]c3c(=O)n(C)cc(c23)-c2cc(CS(C)(=O)=O)ccc2N1CC1CC1 (racemic) [Example 15, 4-(cyclopropylmethyl)-3-(2-methoxyethyl)-10-methyl-7-((methylsulfonyl)methyl)-3,4-dihydro-1H-1,4,10-triazadibenzo[cd,f]azulen-11(10H)-one] | 68 | –
13 | 2.66 | 0.62 | – | – | – | 3.77 | Cn1cc2c3c(c[nH]c3c1=O)CN(c1ccc(F)cc1F)c1c-2cc(CS(C)(=O)=O)cc1C1CC1 [Example 195, 5-cyclopropyl-4-(2,4-difluorophenyl)-10-methyl-7-((methylsulfonyl)methyl)-3,4-dihydro-1H-1,4,10-triazadibenzo[cd,f]azulen-11(10H)-one] | – | 85
14 | 1 | 3.38 | – | – | – | 10.7 | Cn1cc2c3c(c[nH]c3c1=O)CN(CCC1CCOCC1)c1ccc(CS(C)(=O)=O)cc1-2 [Example 191, 10-methyl-7-((methylsulfonyl)methyl)-4-(2-(tetrahydro-2H-pyran-4-yl)ethyl)-3,4-dihydro-1H-1,4,10-triazadibenzo[cd,f]azulen-11(10H)-one] | – | 60
15 | 1.78 | 0.82 | – | – | – | 1.93 | CC(C)CN1Cc2c[nH]c3c(=O)n(C)cc(c23)-c2cc(CS(C)(=O)=O)ccc21 [Example 149, 4-isobutyl-10-methyl-7-((methylsulfonyl)methyl)-3,4-dihydro-1H-1,4,10-triazadibenzo[cd,f]azulen-11(10H)-one] | – | 86
16 | – | – | – | 1.19 | 1.01 | 1.27 | 4-((4,4-difluorocyclohexyl)methyl)-10-methyl-7-((methylsulfonyl)methyl)-3,4-dihydro-1H-1,4,10-triazadibenzo[cd,f]azulen-11(10H)-one [Example 27] | 79 | –
17 | 1.65 | 1.08 | – | – | – | 1.25 | Cn1cc2c3c(c[nH]c3c1=O)CN(c1ccc(C#N)cc1)c1ccc(CS(C)(=O)=O)cc1-2 [Example 192, 4-(10-methyl-7-((methylsulfonyl)methyl)-11-oxo-10,11-dihydro-1H-1,4,10-triazadibenzo[cd,f]azulen-4(3H)-yl)benzonitrile] | – | 73
18 | 2.02 | 0.617 | – | – | – | 5.38 | Cn1cc2c3c(c(C(N)=O)[nH]c3c1=O)CN(c1ccc(Cl)cc1)c1ccc(CS(C)(=O)=O)cc1-2 [Example 58, 4-(4-chlorophenyl)-10-methyl-7-((methylsulfonyl)methyl)-11-oxo-3,4,10,11-tetrahydro-1H-1,4,10-triazadibenzo[cd,f]azulene-2-carboxamide] | – | 39

Row | Compound | Ki (BRD4 (BDI_K57-E168); [3]) [nM] | Ki (BRD4 (BDII_E352-M457); [3]) [nM] | EC50 ([1]; Homo sapiens, MX1, 72 h) [nM] | Ki (BRD4 (BDI_K57-E168); [4]) [nM] | Ki (BRD4 (BDII_E352-M457); [4]) [nM] | EC50 [1] [nM] | % inhibition of LPS induced IL-6 production ([2]; mouse strain SCID) [%] | % inhibition of LPS induced IL-6 production ([2]; mouse strain CD1) [%]
19 | Cn1cc2c3c(c[nH]c3c1=O)CN(CC1CCOC1)c1ccc(CS(C)(=O)=O)cc1-2 (centres unmarked) [Example 26] | 0.701 | 0.719 | – | – | – | 1.03 | 88 | –
20 | 5,7-difluoro-10-methyl-4-((tetrahydrofuran-3-yl)methyl)-3,4-dihydro-1H-1,4,10-triazadibenzo[cd,f]azulen-11(10H)-one [Example 42] | 1.56 | 2.03 | – | – | – | 5.44 | – | 86
